This data set in a line: TIMS collisional cross section (CCS, N2) of the lipid ion; higher = larger ion cross section. The note with it: ionization mode: positive, one isomer drawn. How it is done: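 Lipid extracts of human plasma (NIST SRM 1950), mouse liver and HeLa cells were separated by nanoflow C18 LC (30 min gradient, 60 °C) and analysed by TIMS-PASEF on a timsTOF Pro in positive ion mode. Ion mobility was calibrated with the Agilent tuning mix and converted to collisional cross sections (Mason–Schamp) in N2 drift gas. Lipids were identified by MS/MS (SimLipid) and manual curation. SMILES are LIPID MAPS representative structures for the annotated lipid.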

34 molecules from the supplement of paper PMC6965134 can be followed below.

± gives the standard deviation of the averaged measurements.

As to `CC/C=C\C/C=C\C/C=C\C/C=C\C/C=C\C/C=C\CCC(=O)O[C@@H](CO)COC(=O)CCCCCCCCCCCCCCC` [DG 16:0_22:6_0:0] (ion (formula + adduct): [C41H68O5+NH4] 1+), the “TIMS collisional cross section” value (sample type: Liver) came to 267.7 Å².

On to `CCCCCC/C=C\CCCCCCCC(=O)OC[C@H](CO)OC(=O)CCCCCCC/C=C\CCCCCC` [DG 16:1_16:1_0:0] (ion (formula + adduct): [C35H64O5+NH4] 1+), for which the “TIMS collisional cross section” value (sample type: HeLa) is 249 Å². The same measure, in the same setting: under `CCCCCC/C=C\CCCCCCCC(=O)OC[C@H](CO)OC(=O)CCCCCCC/C=C\CCCCCCCC` [DG 16:1_18:1_0:0] (ion (formula + adduct): [C37H68O5+H] 1+) stands 258.1 Å². Consider `CCCCCC/C=C\CCCCCCCC(=O)OC[C@H](CO)OC(=O)CCCCCCC/C=C\CCCCCCCC` [DG 16:1_18:1_0:0] (ion (formula + adduct): [C37H68O5+NH4] 1+), for which the “TIMS collisional cross section” value runs as follows: (sample type: Liver) 260 Å²; (sample type: plasma) 258.75 ± 1.2 Å². The like results for `CCCCC/C=C\C/C=C\CCCCCCCC(=O)O[C@@H](CO)COC(=O)CCCCCCC/C=C\CCCCCC` [DG 16:1_18:2_0:0] (ion (formula + adduct): [C37H66O5+NH4] 1+) were, in that order, 253.1 Å² and 253.8 Å². Consider `CCCCCCCC/C=C\CCCCCCCC(=O)O[C@@H](CO)COC(=O)CCCCCCCCCCCCCCCC` [DG 17:0_18:1_0:0] (ion (formula + adduct): [C38H72O5+NH4] 1+), for which the “TIMS collisional cross section” value is 265.7 Å² (sample type: HeLa) and 266 Å² (sample type: Liver). For the molecule `CCCCC/C=C\C/C=C\CCCCCCCC(=O)O[C@@H](CO)COC(=O)CCCCCCCCCCCCCCCC` [DG 17:0_18:2_0:0] (ion (formula + adduct): [C38H70O5+NH4] 1+), the “TIMS collisional cross section” value (sample type: Liver) was determined as 262.8 Å². On to `CCCCCCCCCCCCCCCCCC(=O)OC[C@H](CO)OC(=O)CCCCCCCCCCCCCCC` [DG 18:0_16:0_0:0] (ion (formula + adduct): [C37H72O5+NH4] 1+), for which the “TIMS collisional cross section” value is recorded as 265.6 Å² (sample type: Liver) and 265.6 Å² (sample type: plasma). On to `CCCCCCCCCCCCCCCCCC(=O)OCC(CO)OC(=O)CCCCCCCCCCCCCCCCC` (configuration not stated) [DG 18:0_18:0_0:0] (ion (formula + adduct): [C39H76O5+NH4] 1+), for which the “TIMS collisional cross section” value is 272.2 Å² (sample type: HeLa) and 273.4 Å² (sample type: plasma).

On to `CCCCCCCC/C=C\CCCCCCCC(=O)O[C@@H](CO)COC(=O)CCCCCCCCCCCCCCCCC` [DG 18:0_18:1_0:0] (ion (formula + adduct): [C39H74O5+NH4] 1+), for which the “TIMS collisional cross section” value (sample type: Liver) is reported as 269.6 Å².

Consider `CCCCC/C=C\C/C=C\C/C=C\CCCCCCC(=O)O[C@@H](CO)COC(=O)CCCCCCCCCCCCCCCCC` [DG 18:0_20:3_0:0] (ion (formula + adduct): [C41H74O5+NH4] 1+), for which, for the setting “sample type: Liver”, the “TIMS collisional cross section” value was 271.8 Å².

As for `CCCCC/C=C\C/C=C\C/C=C\C/C=C\CCCC(=O)O[C@@H](CO)COC(=O)CCCCCCCCCCCCCCCCC` [DG 18:0_20:4_0:0] (ion (formula + adduct): [C41H72O5+NH4] 1+), the “TIMS collisional cross section” value came out at 270.8 Å² (sample type: HeLa) and 270.8 Å² (sample type: Liver). For `CCCCCCCCCCCCCCCCCCCCCC(=O)O[C@@H](CO)COC(=O)CCCCCCCCCCCCCCCCC` [DG 18:0_22:0_0:0] (ion (formula + adduct): [C43H84O5+NH4] 1+), the “TIMS collisional cross section” value (sample type: plasma) turned out to be 285.7 Å². In the case of `CCCCCC/C=C/CCCCCCCCCC(=O)OC[C@H](CO)OC(=O)CCCCCCCCCCCCCCC` [DG 18:1_16:0_0:0] (ion (formula + adduct): [C37H70O5+H] 1+), the “TIMS collisional cross section” value (sample type: HeLa) stood at 257.7 Å².

As to `CCCCCC/C=C/CCCCCCCCCC(=O)OC[C@H](CO)OC(=O)CCCCCCCCCCCCCCC` [DG 18:1_16:0_0:0] (ion (formula + adduct): [C37H70O5+NH4] 1+), the “TIMS collisional cross section” value was 262.87 ± 0.64 Å² (sample type: HeLa), 262.85 ± 0.21 Å² (sample type: Liver) and 263.1 Å² (sample type: plasma). On the same counts, the results for `CCCCCCCC/C=C\CCCCCCCC(=O)OC[C@H](CO)OC(=O)CCCCCCC/C=C\CCCCCCCC` [DG 18:1_18:1_0:0] (ion (formula + adduct): [C39H72O5+NH4] 1+) are 265.2 Å², 265.5 Å² and 265.9 ± 0.71 Å². The like results for `CCCCC/C=C\C/C=C\CCCCCCCC(=O)O[C@@H](CO)COC(=O)CCCCCCC/C=C\CCCCCCCC` [DG 18:1_18:2_0:0] (ion (formula + adduct): [C39H70O5+NH4] 1+) were, in that order, 261.1 Å², 261.3 Å² and 261.2 Å². For `CC/C=C\C/C=C\C/C=C\CCCCCCCC(=O)O[C@@H](CO)COC(=O)CCCCCCC/C=C\CCCCCCCC` [DG 18:1_18:3_0:0] (ion (formula + adduct): [C39H68O5+NH4] 1+), the “TIMS collisional cross section” value amounted to 258.6 Å² (sample type: HeLa) and 258.8 Å² (sample type: plasma).

Consider `CCCCCCCC/C=C\CCCCCCCCCC(=O)O[C@@H](CO)COC(=O)CCCCCCC/C=C\CCCCCCCC` [DG 18:1_20:1_0:0] (ion (formula + adduct): [C41H76O5+NH4] 1+), for which the “TIMS collisional cross section” value (sample type: Liver) is 271.8 Å². For `CCCCC/C=C\C/C=C\CCCCCCCCCC(=O)O[C@@H](CO)COC(=O)CCCCCCC/C=C\CCCCCCCC` [DG 18:1_20:2_0:0] (ion (formula + adduct): [C41H74O5+NH4] 1+), the “TIMS collisional cross section” value (sample type: plasma) is given as 268.2 Å².

In the case of `CCCCC/C=C\C/C=C\C/C=C\CCCCCCC(=O)O[C@@H](CO)COC(=O)CCCCCCC/C=C\CCCCCCCC` [DG 18:1_20:3_0:0] (ion (formula + adduct): [C41H72O5+NH4] 1+), the “TIMS collisional cross section” value was 266.8 Å² (sample type: HeLa) and 267 Å² (sample type: Liver). For `CCCCC/C=C\C/C=C\C/C=C\C/C=C\CCCC(=O)O[C@@H](CO)COC(=O)CCCCCCC/C=C\CCCCCCCC` [DG 18:1_20:4_0:0] (ion (formula + adduct): [C41H70O5+NH4] 1+), the “TIMS collisional cross section” value (sample type: Liver) is 266 Å² and the “TIMS collisional cross section” value (sample type: plasma) came out at 265.8 Å². Consider `CC/C=C\C/C=C\C/C=C\C/C=C\C/C=C\CCCC(=O)O[C@@H](CO)COC(=O)CCCCCCC/C=C\CCCCCCCC` [DG 18:1_20:5_0:0] (ion (formula + adduct): [C41H68O5+H] 1+), for which, where the note is “sample type: plasma”, the “TIMS collisional cross section” value is listed as 271.1 Å².

`CC/C=C\C/C=C\C/C=C\C/C=C\C/C=C\CCCC(=O)O[C@@H](CO)COC(=O)CCCCCCC/C=C\CCCCCCCC` [DG 18:1_20:5_0:0] (ion (formula + adduct): [C41H68O5+NH4] 1+): the “TIMS collisional cross section” value (sample type: HeLa) worked out at 263.8 Å². `CCCCCCCC/C=C\CCCCCCCCCCCC(=O)O[C@@H](CO)COC(=O)CCCCCCC/C=C\CCCCCCCC` [DG 18:1_22:1_0:0] (ion (formula + adduct): [C43H80O5+NH4] 1+): the “TIMS collisional cross section” value (sample type: Liver) came out at 278.5 Å². `CCCCC/C=C\C/C=C\C/C=C\C/C=C\CCCCCC(=O)O[C@@H](CO)COC(=O)CCCCCCC/C=C\CCCCCCCC` [DG 18:1_22:4_0:0] (ion (formula + adduct): [C43H74O5+NH4] 1+): where the note is “sample type: plasma”, the “TIMS collisional cross section” value is listed as 273 Å². Take `CC/C=C\C/C=C\C/C=C\C/C=C\C/C=C\CCCCCC(=O)O[C@@H](CO)COC(=O)CCCCCCC/C=C\CCCCCCCC` [DG 18:1_22:5_0:0] (ion (formula + adduct): [C43H72O5+NH4] 1+): the “TIMS collisional cross section” value (sample type: Liver) amounted to 272.3 Å². `CC/C=C\C/C=C\C/C=C\C/C=C\C/C=C\C/C=C\CCC(=O)O[C@@H](CO)COC(=O)CCCCCCC/C=C\CCCCCCCC` [DG 18:1_22:6_0:0] (ion (formula + adduct): [C43H70O5+NH4] 1+): the “TIMS collisional cross section” value is, setting by setting: (sample type: HeLa) 270 Å²; (sample type: Liver) 269.9 Å². With `CCCCC/C=C\C/C=C\CCCCCCCC(=O)OC[C@H](CO)OC(=O)CCCCCCC/C=C\C/C=C\CCCCC` [DG 18:2_18:2_0:0] (ion (formula + adduct): [C39H68O5+NH4] 1+), the “TIMS collisional cross section” value (sample type: Liver) came out at 256.6 Å² and the “TIMS collisional cross section” value (sample type: plasma) came to 257.1 Å². For the molecule `CC/C=C\C/C=C\C/C=C\CCCCCCCC(=O)O[C@@H](CO)COC(=O)CCCCCCC/C=C\C/C=C\CCCCC` [DG 18:2_18:3_0:0] (ion (formula + adduct): [C39H66O5+NH4] 1+), for the setting “sample type: Liver”, the “TIMS collisional cross section” value was 254.2 Å².

For the molecule `CCCCC/C=C\C/C=C\CCCCCCCC(=O)OC[C@H](CO)OC(=O)CCCCCCCCC/C=C\CCCCCCCC` [DG 18:2_20:1_0:0] (ion (formula + adduct): [C41H74O5+NH4] 1+), the “TIMS collisional cross section” value (sample type: Liver) was 268.2 Å². Regarding `CCCCC/C=C\C/C=C\C/C=C\C/C=C\CCCC(=O)O[C@@H](CO)COC(=O)CCCCCCC/C=C\C/C=C\CCCCC` [DG 18:2_20:4_0:0] (ion (formula + adduct): [C41H68O5+NH4] 1+), the “TIMS collisional cross section” value is, setting by setting: (sample type: Liver) 261.1 Å²; (sample type: plasma) 261.6 Å². Consider `CCCCC/C=C\C/C=C\CCCCCCCC(=O)OC[C@H](CO)OC(=O)CCCCCCCCCCCCCCCCCCCCC` [DG 18:2_22:0_0:0] (ion (formula + adduct): [C43H80O5+NH4] 1+), for which the “TIMS collisional cross section” value (sample type: Liver) was determined as 279.2 Å². Same read-out and setting: for `CCCCC/C=C\C/C=C\CCCCCCCC(=O)OC[C@H](CO)OC(=O)CCCCCCCCCCC/C=C\CCCCCCCC` [DG 18:2_22:1_0:0] (ion (formula + adduct): [C43H78O5+NH4] 1+) the value was 275.5 Å².
